Results published in US10053452B2 (AMGEN INC., priority 2013, dated 2018).
pIC50: −log10 of the molar value.

Columns and labels:
[1] = Relationship / interconversion between bismesylate crystalline forms; type: physicochemical
Excerpt: AMG 900 bismesylate salt crystalline From A was identified as a dihydrate; AMG 900 bismesylate salt crystalline From B was identified as a dihydrate; AMG 900 bismesylate salt crystalline From C was identified as a monohydrate; and AMG 900 bismesylate salt crystalline From D was identified as a monohydrate. […].

solid tumor = experiment: Human Ph I clinical trial: active dose and MTD/DLT; settings: oral
[2] = Solubility studies in aqueous media, excipients or solvents (18-24 hrs, HPLC; solid form by XRPD); type: physicochemical; settings: for solubility at 24 h: thermodynamic from solid
Method: (§1) An excess of solid material was stirred at 25° C. or 55° C. for 18-24 hrs in aqueous media, excipients or solvents as noted. At the appropriate time point, an aliquot of the sample was centrifuged. The supernatant was filtered through a PTFE syringe filter and analyzed by HPLC versus a standard curve. The solid was then analyzed by XRPD for identification of the form.

[3] = Solid photostability (1×ICH dose for UV and visible light); type: physicochemical; settings: 1×ICH dose for UV and visible light
Method: For photostability studies, enough sample was placed in a open 100 mL glass crystallization dish and exposed to 1×ICH dose for UV and visible light. Samples were weighed out for HPLC, XRPD, TGA and DSC analysis as abve after the exposure to light.

[4] = Dynamic vapor sorption (DVS) moisture uptake; type: physicochemical
Method: Moisture uptake of a given AMG 900 salt crystalline form was assessed by dynamic vapor sorption (DVS). Moisture sorption/desorption data was collected on a Surface Measurement System (SMS) DVS-Advantage vapor sorption analyzer (SMS, Alperton, Middlesex, UK). The sorption and desorption data was collected over a range of 0 to 95% relative humidity (RH) at 25° C. with 5-10% RH intervals under a nitrogen purge. Equilibrium criteria used for analysis were less than 0.002% weight change in 5 minutes, with a maximum equilibrium time of 120 minutes if the weight criterion was not met.

Dog pK study = type: in vivo
Excerpt: To this end, a various crystalline forms of different pharmaceutically acceptable salts of AMG 900 were investigated and made.

[5] = system: solid ovarian cancerous tumor; experiment: Human Ph I clinical trial, tumor response: ovarian tumor
Method: Specifically, FIG. 32A illustrates diametric measurements along the short axis of the tumor dosed with 30 mg once daily over a period of two (2) cycles, ie., 4 week (28 days).

[6] = system: stage IV solid endometrial cancerous tumor; experiment: Human Ph I clinical trial, tumor response: endometrial tumor; settings: CT
Excerpt: FIGS. 31A and 31B are measurements of the same endometrial solid tumor depicted in FIGS. 30A and 30B, but with its size shown as measured alone the short axis by CT and calculated using RECIST 1.1.

[7] = Solid stability studies (storage at set temperature/humidity; HPLC, XRPD, TGA, DSC); type: physicochemical; settings: for Assay (% w/w): acceptance 97.0-103.0; for physical and chemical stability of unmilled drug substance: up to 3 months, 30° C./65% RH and 40° C./75% RH
Method: Stability data was obtained for up to 3 months storage at the long term storage condition of 30° C./65% RH and at the accelerated condition of 40° C./75% RH for unmilled drug substance.
Another 10 mg was weighed into a 4 mL glass vial and placed under the same conditions. At each time point one flask was removed from the chamber or over, diluted with methanol to the 100 mL mark and analyzed by HPLC for purity and label claim % compared to the standard. Also at each time point one vial was removed from the chamber and the contents were analyzed by XRPD, TGA and/or DSC.

[8] = as above; type: physicochemical; settings: for Total Impurities (%): acceptance < or = 2.0; for Assay (% w/w): acceptance 97.0-103.0; for Description: acceptance: White to brown powder
[9] = Solubility of salt/crystal forms in 0.01N HCl over 24 hrs; type: physicochemical; settings: slurry
Method: as §1

p-Histone H3 [10] = experiment: p-Histone H3 in Jurkat cells; settings: Homo sapiens, read-out: IC50 for p-Histone H3
p-Histone H3 [11] = experiment: p-Histone H3 in HeLa cells; settings: Homo sapiens, read-out: IC50 p-Histone H3
[12] = platinum-sensitive ovarian cancer patient, 16 mg, then 8 mg (cycles 4-15), 12 mg (cycle 16) once daily, end of cycle 16
[13] = 30° C./65% RH, Initial Period Time 0
[14] = up to 12 weeks, 25° C./60% RH, 40° C./60% RH, 40° C./75% RH and 60° C./Amb

Cc1csc(-c2nnc(Nc3ccc(Oc4ncccc4-c4ccnc(N)n4)cc3)c3ccccc23)c1 [bismesylate monohydrate form C, N-(4-((3-(2-amino-4-pyrimidinyl)-2-pyridinyl)oxy)phenyl)-4-(4-methyl-2-thienyl)-1-phthalazinamine]
form conversion with an increase in humidity ([1]; relative humidity at or greater than 50%): convert to the dihydrate form B

Cc1csc(-c2nnc(Nc3ccc(Oc4ncccc4-c4ccnc(N)n4)cc3)c3ccccc23)c1 [N-(4-((3-(2-amino-4-pyrimidinyl)-2-pyridinyl)oxy)phenyl)-4-(4-methyl-2-thienyl)-1-phthalazinamine]
stability of the crystalline form [1]: unstable | form conversion at room temperature ([1]; room temperature, normal humidity): converts back to crystalline Form B

Cc1csc(-c2nnc(Nc3ccc(Oc4ncccc4-c4ccnc(N)n4)cc3)c3ccccc23)c1 [AMG 900 bismesylate dihydrate form B, N-(4-((3-(2-amino-4-pyrimidinyl)-2-pyridinyl)oxy)phenyl)-4-(4-methyl-2-thienyl)-1-phthalazinamine]
dose at which MTD's and DLT's were observed (solid tumor): greater than 8 mg | once daily dose at which anti cancer activity was observed (solid tumor; on-off schedule, ovarian and endometrial tumors): ≥ 8 mg | form stability after slurry in various aqueous media and solvents ([2]; 24 hrs, all media except aqueous pH 7 and pH 12): remain unchanged (stable) | solubility at 24 h ([2]; DMF, organic solvent or mixture): > 12000 µg/mL | solubility at 24 h ([2]; THF, organic solvent or mixture): 12 µg/mL | solubility at 24 h ([2]; acetone, organic solvent or mixture): 20 µg/mL | solubility at 24 h ([2]; aqueous MSA, aqueous buffer, pH 0.5 MSA): 676 µg/mL | solubility at 24 h ([2]; aqueous MSA, aqueous buffer, pH 1.0 MSA): > 7400 µg/mL | solubility at 24 h ([2]; aqueous MSA, aqueous buffer, pH 1.5 MSA): 3400 µg/mL | solubility at 24 h ([2]; aqueous MSA, aqueous buffer, pH 2.0 MSA): 1620 µg/mL | form after slurry ([2]; aqueous pH 7, 24 hrs): converted to the free base form C hydrate | form after slurry ([2]; aqueous pH 12, 24 hrs): converted to the free base form C hydrate | solubility at 24 h ([2]; ethanol, organic solvent or mixture): > 12000 µg/mL | solubility at 24 h ([2]; ethyl acetate, organic solvent or mixture): < 1 µg/mL | solubility at 24 h ([2]; isopropyl alcohol, organic solvent or mixture): > 1 µg/mL | solubility at 24 h ([2]; methanol, organic solvent or mixture): > 12000 µg/mL | solubility at 24 h ([2]; methanol/water (9:1), organic solvent or mixture): > 12000 µg/mL | solubility at 24 h ([2]; methyl ethyl ketone, organic solvent or mixture, Methyl ethyl keone): < 1 µg/mL | solubility at 24 h ([2]; organic solvent or mixture, Acetonitrile (ACN)): 383 µg/mL | solubility at 24 h ([2]; organic solvent or mixture, Dichloroethane (DCE)): 8 µg/mL | solubility at 24 h ([2]; phosphate buffer, aqueous buffer, pH 7.0 Phosphate): < 1 µg/mL | solubility at 24 h ([2]; phosphate buffer, aqueous buffer, pH 12.0 Phosphate): < 1 µg/mL | chemical and physical stability to light [3]: chemically and physically stable | hygroscopicity [4]: non-hygroscopic | stability to humidity changes (DVS isotherm) ([4]; above 10% RH): stable to humidity changes | exposure in a dog pK study (Dog pK study; dog): acceptable | decrease in CA-125 [5, 12]: 45% | decrease in SLD (sum of long axis diameters) on CT [5, 12]: 16% | reduction of short axis diameter versus base line ([5]; stage IV-B ovarian tumor patient, 30 mg once daily, 4 days on/10 days off, two cycles, week 4, RECIST 1.1): about 30% | thermodynamic stability of the crystalline form [1]: thermodynamically stable form | decrease of long axis diameter versus base line ([6]; endometrial tumor patient, 30 mg+GCSF once daily, 4 days on/10 days off, week 24, RECIST 1.0): approximately 50% | Assay (% w/w) ([7]; 30° C./65% RH, 3 months): 99.2 % w/w | Description ([7]; 30° C./65% RH, 3 months, acceptance: White to brown powder): conforms | Assay (% w/w) [7, 13]: 98.1 % w/w | Total Impurities (%) ([7]; 30° C./65% RH, Initial Period Time 0, acceptance < or = 2.0): 0.35% | 4-aminophenol content (ppm) ([7]; 30° C./65% RH, Initial Period Time 0, acceptance < or = 500): <20 ppm | physical and chemical stability of unmilled drug substance ([7]; listed as AMG 900 bis-mesylate dihydrate drug substance): remain within specifications | physical and chemical stability of unmilled drug substance ([7]; listed as AMG 900 bismesylate (dimethanesulfonate) salt crystalline Form B): stable | Water content (%) ([8]; 30° C./65% RH, 3 months): 5.1% | Total Impurities (%) ([8]; 30° C./65% RH, 3 months): 0.21% | 4-aminophenol content (ppm) ([8]; 30° C./65% RH, 3 months, acceptance < or = 500): <20 ppm | Water content (%) ([8]; 30° C./65% RH, 6 months): 5.2% | Assay (% w/w) ([8]; 30° C./65% RH, 6 months): 99.1 % w/w | Total Impurities (%) ([8]; 30° C./65% RH, 6 months): 0.16% | 4-aminophenol content (ppm) ([8]; 30° C./65% RH, 6 months, acceptance < or = 500): <20 ppm | Description ([8]; 30° C./65% RH, 6 months): conforms | Water content (%) ([8]; 30° C./65% RH, 9 months): 5.2% | Assay (% w/w) ([8]; 30° C./65% RH, 9 months): 101.2 % w/w | Total Impurities (%) ([8]; 30° C./65% RH, 9 months): 0.25% | 4-aminophenol content (ppm) ([8]; 30° C./65% RH, 9 months, acceptance < or = 500): <20 ppm | Description ([8]; 30° C./65% RH, 9 months): conforms | Water content (%) ([8]; 30° C./65% RH, 12 months): 5.2% | Assay (% w/w) ([8]; 30° C./65% RH, 12 months): 100.1 % w/w | Total Impurities (%) ([8]; 30° C./65% RH, 12 months): 0.26% | 4-aminophenol content (ppm) ([8]; 30° C./65% RH, 12 months, acceptance < or = 500): <20 ppm | Intermediate* content (ppm) ([8]; 30° C./65% RH, 12 months, acceptance < or = 500, intermediate is 4-(2-(4-aminophenoxy)pyridin-3-yl)pyrimidin-2-amine): 171 ppm | Description ([8]; 30° C./65% RH, 12 months): conforms | Water content (%) [8, 13]: 5.0% | Description [8, 13]: conforms | chemical stability (HPLC) [8, 14]: no degradation detected | physical stability (XRPD, TGA and DSC) [8, 14]: physically stable

Cc1csc(-c2nnc(Nc3ccc(Oc4ncccc4-c4ccnc(N)n4)cc3)c3ccccc23)c1 [bismesylate dihydrate form A, N-(4-((3-(2-amino-4-pyrimidinyl)-2-pyridinyl)oxy)phenyl)-4-(4-methyl-2-thienyl)-1-phthalazinamine]
solubility versus AMG 900 free base crystalline form A [9]: significant improvement in solubility | form conversion over time ([1]; room temperature in a capped vial): converts to form B

Cc1csc(-c2nnc(Nc3ccc(Oc4ncccc4-c4ccnc(N)n4)cc3)c3ccccc23)c1 [free base crystalline form A of AMG 900, N-(4-((3-(2-amino-4-pyrimidinyl)-2-pyridinyl)oxy)phenyl)-4-(4-methyl-2-thienyl)-1-phthalazinamine]
solubility in water ([2]; water): poorly soluble | bioavailability in dogs (Dog pK study; dogs): low

Cc1csc(-c2nnc(Nc3ccc(Oc4ncccc4-c4ccnc(N)n4)cc3)c3ccccc23)c1 [AMG 900, N-(4-((3-(2-amino-4-pyrimidinyl)-2-pyridinyl)oxy)phenyl)-4-(4-methyl-2-thienyl)-1-phthalazinamine]
pIC50 (p-Histone H3 [10]; 1 h): 7.18 | pIC50 (p-Histone H3 [10]; 24 h): 8.40 | pIC50 (p-Histone H3 [11]; 1 h): 7.23 | pIC50 (p-Histone H3 [11]): 6.62 | reduction of short axis diameter ([6]; same endometrial tumor, 30 mg once daily, week 16, eight cycles, RECIST 1.1): up to 40%
